Laboratory results published in patent US20240376085A1 (Janssen Pharmaceutica NV, priority 2021, published 2024).

What was measured:
IL-17A : IL-17RA binding = molecular target: T1, IL-17A : IL-17RA binding (Homo sapiens, UniProt Q16552, K93Q); test: IL-17A(FLAG-tagged):IL-17RA(His-tagged) binding disruption Eu-HTRF assay, Protocol 1; conditions: FLAG-IL-17A 2.5 nM at 2x final concentration; average if tested more than once
T1 construct: Name: IL-17A-Flag
Method in brief: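 IC50 came from a one-site competition fit of the acceptor/donor (665/620 nm) HTRF ratio. His-tagged IL-17RA, Eu-anti-FLAG and D2-anti-His were added after a 1 h rt compound preincubation with FLAG-tagged IL-17A dimer in PBS/0.01% Triton X-100, followed by 2 h at rt before reading.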

[1] = system: IL-17A-induced G-CSF production in human normal keratinocyte (NHK); test: NHK assay: IL-17A-induced G-CSF production in normal human keratinocytes; type: cell-based; conditions: Homo sapiens, Keratinocyte, 24 h, IL-17A 5 ng/mL, average if tested more than once
Method in brief: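 IC50 derives from G-CSF in supernatants, quantified by HTRF from a standard curve, with CellTiter-Glo viability compared to DMSO control. Before a 24 h, 37°C culture of normal human keratinocytes at 3000–4000 cells/well, compound dilutions were preincubated 1 h at rt with human IL-17A (5 ng/mL final), with 0.2% DMSO and 5% FBS.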

T1 sequence (Q16552 with tags, fused parts or gaps K93Q): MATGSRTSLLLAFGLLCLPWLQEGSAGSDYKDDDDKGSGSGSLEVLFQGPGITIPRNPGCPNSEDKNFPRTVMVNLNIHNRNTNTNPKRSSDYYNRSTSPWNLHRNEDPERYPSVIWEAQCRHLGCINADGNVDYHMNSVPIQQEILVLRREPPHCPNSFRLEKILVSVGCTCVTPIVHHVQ

| IC50 (IL-17A : IL-17RA binding) | Structure (SMILES) | IC50 [1] |
| --- | --- | --- |
| > 100 nM | C[C@@H](NC(=O)CCC(F)(F)F)c1ccc2[nH]c([C@@H](NC(=O)C3CC3)C3CCC(F)(F)CC3)nc2c1 [Example 94, N—((S)-(4,4-Difluorocyclohexyl)(5-((R)-1-(4,4,4-trifluorobutanamido)ethyl)-1H-benzo[d]imidazol-2-yl)methyl)cyclopropanecarboxamide] | > 100 nM |
| > 100 nM | C[C@@H](NC(=O)CCC(F)(F)F)c1ccc2[nH]c([C@@H](NC(=O)C3(C)CC3)C3CCC(F)(F)CC3)nc2c1 [Example 95, N—((S)-(4,4-Difluorocyclohexyl)(5-((R)-1-(4,4,4-trifluorobutanamido)ethyl)-1H-benzo[d]imidazol-2-yl)methyl)-1-methylcyclopropane-1-carboxamide] | > 100 nM |
| > 100 nM | C[C@@H](NC(=O)CCC(F)(F)F)c1ccc2[nH]c([C@@H](NC(=O)C3(F)CC3)C3CCC(F)(F)CC3)nc2c1 [Example 96, N—((S)-(4,4-Difluorocyclohexyl)(5-((R)-1-(4,4,4-trifluorobutanamido)ethyl)-1H-benzo[d]imidazol-2-yl)methyl)-1-fluorocyclopropane-1-carboxamide] | > 100 nM |
| > 100 nM | C[C@@H](NC(=O)CCC(F)(F)F)c1ccc2[nH]c([C@@H](NC(=O)C3(C(F)(F)F)CC3)C3CCC(F)(F)CC3)nc2c1 [Example 97, N—((S)-(4,4-Difluorocyclohexyl)(5-((R)-1-(4,4,4-trifluorobutanamido)ethyl)-1H-benzo[d]imidazol-2-yl)methyl)-1-(trifluoromethyl)cyclopropane-1-carboxamide] | > 100 nM |
| > 100 nM | C[C@@H](NC(=O)CCC(F)(F)F)c1ccc2[nH]c([C@@H](NC(=O)[C@H]3C[C@@H]3F)C3CCC(F)(F)CC3)nc2c1 [Example 98, (1R,2S)—N—((S)-(4,4-Difluorocyclohexyl)(5-((R)-1-(4,4,4-trifluorobutanamido)ethyl)-1H-benzo[d]imidazol-2-yl)methyl)-2-fluorocyclopropane-1-carboxamide] | > 100 nM |
| > 100 nM | C[C@@H](NC(=O)CCC(F)(F)F)c1ccc2[nH]c([C@@H](NC(=O)[C@H]3C[C@H]3F)C3CCC(F)(F)CC3)nc2c1 [Example 99, (1R,2R)—N—((S)-(4,4-Difluorocyclohexyl)(5-((R)-1-(4,4,4-trifluorobutanamido)ethyl)-1H-benzo[d]imidazol-2-yl)methyl)-2-fluorocyclopropane-1-carboxamide] | > 100 nM |
| > 100 nM | C[C@@H](NC(=O)CCC(F)(F)F)c1ccc2[nH]c([C@@H](NC(=O)[C@@H]3C[C@H]3F)C3CCC(F)(F)CC3)nc2c1 [Example 100, (1S,2R)—N—((S)-(4,4-Difluorocyclohexyl)(5-((R)-1-(4,4,4-trifluorobutanamido)ethyl)-1H-benzo[d]imidazol-2-yl)methyl)-2-fluorocyclopropane-1-carboxamide] | > 100 nM |
| > 100 nM | C[C@@H](NC(=O)CCC(F)(F)F)c1ccc2[nH]c([C@@H](NC(=O)[C@@H]3C[C@@H]3F)C3CCC(F)(F)CC3)nc2c1 [Example 101, (1S,2S)—N—((S)-(4,4-Difluorocyclohexyl)(5-((R)-1-(4,4,4-trifluorobutanamido)ethyl)-1H-benzo[d]imidazol-2-yl)methyl)-2-fluorocyclopropane-1-carboxamide] | > 100 nM |
| > 100 nM | C[C@@H](NC(=O)CCC(F)(F)F)c1ccc2[nH]c([C@@H](NC(=O)[C@@H]3C[C@@H]3C#N)C3CCC(F)(F)CC3)nc2c1 [Example 102, cis-(1,2)-2-Cyano-N—((S)-(4,4-difluorocyclohexyl)(5-((R)-1-(4,4,4-trifluorobutanamido)ethyl)-1H-benzo[d]imidazol-2-yl)methyl)cyclopropane-1-carboxamide] | > 100 nM |
